Measured values reported in the supplement of paper PMC10307832.

The cell lines below were run with CC1(C)CNc2cc(NC(=O)c3cccnc3NCc3ccncc3)ccc21 [Motesanib] + Cc1nc(NC(=O)N2CCC[C@H]2C(N)=O)sc1-c1ccnc(C(C)(C)C(F)(F)F)c1 [Alpelisib] (partner 2 µM) (assay: relative viability (nuclei count vs DMSO), 5 days (fraction); higher = more cells survive). Conditions: first compound 1 µM.
Method in brief: (§1)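 Lung cancer cell lines were seeded in 1536-well plates and dosed by pin tool the next day, with either a single drug or a fixed anchor-drug dose combined with five library-drug doses (not always all listed) spaced in √10 steps. Five days later, one step fixed the cells and stained their nuclei (final 0.05% Triton X-100, 1% formaldehyde, 1 ug/ml Hoechst), and nuclei were counted on 4× images. Relative viability is the nuclei count in treated wells divided by the count in vehicle wells, and each value is the median of duplicate plates.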
With NCI-H838 the relative viability was 1.03. LCLC-103H showed a relative viability of 0.987. Work on NCI-H520 yielded a relative viability of 0.768. NCI-H2126 was tested, and the relative viability was 0.699. EMC-BAC-2 was tested, and the relative viability was 0.704. With NCI-H2085 the relative viability was 1.05. In the case of Calu-6, the relative viability is reported as 1.03. HCC-366 gave a relative viability of 0.321. NCI-H1666 gave a relative viability of 1.16. For NCI-H596, the relative viability was 0.498. LK-2 gave a relative viability of 1.19. Work on NCI-H2087 yielded a relative viability of 1.03. With SK-MES-1 the relative viability was 0.995. Cell Line H3255 has a relative viability of 0.771. COR-L23 was tested, and the relative viability was 0.781. Cell Line COR-L 105 has a relative viability of 1.26. With IA-LM the relative viability was 0.746. LOU-NH91 showed a relative viability of 0.802. In the case of NCI-H2170, the relative viability is reported as 0.794. With NCI-H2405 the relative viability was 0.942. Cell Line HOP-62 has a relative viability of 1.15. With HCC-44 the relative viability was 0.827. A549 was tested, and the relative viability was 0.909. In the case of LU99A, the relative viability is reported as 0.559. BEN showed a relative viability of 1.18. For HARA, the relative viability was 0.831. HCC-78 was tested, and the relative viability was 0.333. For NCI-H322M, the relative viability was 0.778. Work on LCLC-97TM1 yielded a relative viability of 0.263. In the case of NCI-H2009, the relative viability is reported as 1.15. NCI-H1299 gave a relative viability of 1.12. In the case of NCI-H1563, the relative viability is reported as 0.95. In the case of ABC-1, the relative viability is reported as 1.18.

The cell lines below were run with C[C@@]1(C(=O)Nc2ccc(F)nc2)CCCN1c1nc(Nc2cc(C3CC3)n[nH]2)c2cccn2n1 + C[C@]1(O)C[C@@H](c2nc(-c3ccc4ccc(-c5ccccc5)nc4c3)c3c(N)nccn32)C1 [Linsitinib] (partner 1 µM) in the same assay as above. Conditions: first compound 0.04 µM.
Method in brief: as §1
NCI-H727 was tested, and the relative viability was 0.349. With EBC-1 the relative viability was 0.953. For NCI-H1703, the relative viability was 1.03. With NCI-H1993 the relative viability was 0.705. With SW 1573 the relative viability was 0.914. NCI-H838 showed a relative viability of 1.09. In the case of LCLC-103H, the relative viability is reported as 1.23. NCI-H520 was tested, and the relative viability was 0.951. Cell Line NCI-H2126 has a relative viability of 0.736. EMC-BAC-2 gave a relative viability of 0.808. With NCI-H2085 the relative viability was 0.877. In the case of Calu-6, the relative viability is reported as 0.91. HCC-366 was tested, and the relative viability was 0.732. NCI-H1666 gave a relative viability of 0.89. NCI-H596 showed a relative viability of 0.954. With LK-2 the relative viability was 0.579. NCI-H2087 was tested, and the relative viability was 0.933. In the case of SK-MES-1, the relative viability is reported as 1.03. In the case of H3255, the relative viability is reported as 1.14. In the case of COR-L23, the relative viability is reported as 0.818. COR-L 105 showed a relative viability of 0.796. IA-LM showed a relative viability of 0.602. LOU-NH91 gave a relative viability of 0.937. NCI-H2405 showed a relative viability of 1.04. Work on HOP-62 yielded a relative viability of 0.927. Cell Line HCC-44 has a relative viability of 0.777. A549 showed a relative viability of 0.681. LU99A was tested, and the relative viability was 0.544. BEN showed a relative viability of 0.895. In the case of HARA, the relative viability is reported as 0.947. Cell Line HCC-78 has a relative viability of 0.541. With NCI-H322M the relative viability was 0.968. For LCLC-97TM1, the relative viability was 0.191. NCI-H2009 showed a relative viability of 1.2. NCI-H1299 showed a relative viability of 0.988. NCI-H1563 was tested, and the relative viability was 1.11. With ABC-1 the relative viability was 1.05.

Same assay, conditions: first compound 0.1265 µM
In the case of NCI-H727, the relative viability is reported as 0.135. For EBC-1, the relative viability was 0.76. Cell Line NCI-H1703 has a relative viability of 0.457. SW 1573 was tested, and the relative viability was 0.665. With NCI-H838 the relative viability was 0.848. LCLC-103H showed a relative viability of 1.01. Cell Line NCI-H520 has a relative viability of 0.867. With NCI-H2126 the relative viability was 0.685. For EMC-BAC-2, the relative viability was 0.897. In the case of NCI-H2085, the relative viability is reported as 0.873. For Calu-6, the relative viability was 0.895. Work on HCC-366 yielded a relative viability of 0.446. With NCI-H1666 the relative viability was 0.87. NCI-H596 showed a relative viability of 1.02. LK-2 showed a relative viability of 1.11. With NCI-H2087 the relative viability was 0.935. SK-MES-1 showed a relative viability of 0.95. H3255 showed a relative viability of 1.03. Work on COR-L23 yielded a relative viability of 0.855. COR-L 105 was tested, and the relative viability was 0.808. IA-LM gave a relative viability of 0.718. Work on LOU-NH91 yielded a relative viability of 1.12. With NCI-H2405 the relative viability was 0.91. For HOP-62, the relative viability was 0.773. In the case of HCC-44, the relative viability is reported as 0.622. For A549, the relative viability was 0.571. Cell Line LU99A has a relative viability of 0.497. In the case of BEN, the relative viability is reported as 1.24. Cell Line HARA has a relative viability of 0.939. In the case of HCC-78, the relative viability is reported as 0.332. For NCI-H322M, the relative viability was 0.83. LCLC-97TM1 gave a relative viability of 0.173. For NCI-H2009, the relative viability was 1.2. In the case of NCI-H1299, the relative viability is reported as 1.04. NCI-H1563 showed a relative viability of 1.07. For ABC-1, the relative viability was 0.711.

Same assay, conditions: first compound 0.4 µM
NCI-H727 showed a relative viability of 0.232. EBC-1 was tested, and the relative viability was 0.706. For NCI-H1703, the relative viability was 0.632. Work on NCI-H1993 yielded a relative viability of 0.723. SW 1573 was tested, and the relative viability was 0.656. Cell Line NCI-H838 has a relative viability of 0.753. LCLC-103H showed a relative viability of 1.01. With NCI-H520 the relative viability was 0.915. With NCI-H2126 the relative viability was 0.712. For EMC-BAC-2, the relative viability was 0.795. With NCI-H2085 the relative viability was 0.809. Work on Calu-6 yielded a relative viability of 0.833. In the case of HCC-366, the relative viability is reported as 0.459. Cell Line NCI-H1666 has a relative viability of 0.753. NCI-H596 showed a relative viability of 0.939. Cell Line LK-2 has a relative viability of 0.376. Work on NCI-H2087 yielded a relative viability of 0.962. In the case of SK-MES-1, the relative viability is reported as 0.957. Work on H3255 yielded a relative viability of 0.833. Cell Line COR-L23 has a relative viability of 0.768. In the case of COR-L 105, the relative viability is reported as 0.627. With IA-LM the relative viability was 0.459. Work on LOU-NH91 yielded a relative viability of 0.82. In the case of NCI-H2405, the relative viability is reported as 0.779. HOP-62 was tested, and the relative viability was 1.06. HCC-44 showed a relative viability of 0.605. Work on A549 yielded a relative viability of 0.401. LU99A gave a relative viability of 0.499. BEN showed a relative viability of 0.766. With HARA the relative viability was 0.88. With HCC-78 the relative viability was 0.313. In the case of NCI-H322M, the relative viability is reported as 0.865. LCLC-97TM1 was tested, and the relative viability was 0.163. With NCI-H2009 the relative viability was 1.13. In the case of NCI-H1299, the relative viability is reported as 1. In the case of NCI-H1563, the relative viability is reported as 1.06. ABC-1 gave a relative viability of 0.619.

Same assay, conditions: first compound 1.265 µM
For NCI-H727, the relative viability was 0.283. For EBC-1, the relative viability was 0.891. Cell Line NCI-H1703 has a relative viability of 0.695. Work on NCI-H1993 yielded a relative viability of 0.733. SW 1573 gave a relative viability of 0.806. NCI-H838 showed a relative viability of 0.874. With LCLC-103H the relative viability was 1.18. Cell Line NCI-H520 has a relative viability of 1.07. Cell Line NCI-H2126 has a relative viability of 0.771. EMC-BAC-2 showed a relative viability of 0.884. Work on NCI-H2085 yielded a relative viability of 0.822. Work on Calu-6 yielded a relative viability of 0.859. With HCC-366 the relative viability was 0.677.
